For nine molecules, TGI results are on record in PubChem BioAssay (NCI).

Some test systems named below: SF-539 CNS; CCRF-CEM leukemia; SK-MEL-2 melanoma; OVCAR-8 ovarian; TK-10 renal; SK-MEL-5 melanoma; HCC-2998 colon; SK-OV-3 ovarian; 786-0 renal; HOP-62 NSCLC; HOP-92 NSCLC; BT-549 breast; MCF7 breast; SF-268 CNS; OVCAR-4 ovarian; SNB-19 CNS.
Holding throughout (experiment): NCI-60 cell line screen, 48 h

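Assay format: 96-well plates, 48-hour exposure. At the TGI there is no net growth.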 Where a SMILES comes first, the peptide text is derived from it. The star is where a group is joined. Fmoc = O=C(OCC1c2ccccc2-c2ccccc21)*; OtBu = CC(C)(C)O*

As for `CC[C@]12C=CCN3CC[C@@]4(c5cc(N=O)c(OC)cc5N(C)[C@H]4[C@@](O)(C(=O)OC)[C@@H]1OC(C)=O)[C@@H]32`, the TGI with SF-539 CNS is 66.5 µM; with CCRF-CEM leukemia, 74.1 µM; with SK-MEL-2 melanoma, 41.7 µM; in the assay with OVCAR-8 ovarian, > 100 µM; with TK-10 renal, > 100 µM; in the assay on SK-MEL-5 melanoma, > 100 µM. In addition, the TGI in the assay on HCC-2998 colon, with SK-OV-3 ovarian, in the assay on 786-0 renal, with HOP-62 NSCLC, in the assay on HOP-92 NSCLC and with BT-549 breast was > 100 µM each time. Moreover, the TGI in the assay on MCF7 breast, in the assay on SF-268 CNS, with OVCAR-4 ovarian and in the assay on SNB-19 CNS was > 100 µM each time.
On to `CCOC(=O)C1(C#N)OC(=O)c2cnccc21` (stereo not given), for which the TGI in the assay with SF-539 CNS, in the assay with CCRF-CEM leukemia, with SK-MEL-2 melanoma, with OVCAR-8 ovarian, in the assay with HCC-2998 colon and in the assay on SK-OV-3 ovarian was > 100 µM in each case. For the same molecule, the TGI in the assay on 786-0 renal, in the assay with HOP-92 NSCLC, in the assay with BT-549 breast, in the assay on MCF7 breast, in the assay with SF-268 CNS and in the assay on OVCAR-4 ovarian was > 100 µM throughout. Besides, in the assay with SNB-19 CNS, the TGI was > 100 µM.
On to `CSC12c3cc(C)n(-c4ccc([N+](=O)[O-])cc4)c3CC(C)(C)CN1C(=O)C2Oc1ccccc1` (stereo not given), for which the TGI with SF-539 CNS, with CCRF-CEM leukemia, with SK-MEL-2 melanoma, with OVCAR-8 ovarian, with SK-MEL-5 melanoma and in the assay on HCC-2998 colon was > 100 µM in each case. Moreover, the TGI in the assay on 786-0 renal, with HOP-62 NSCLC, with HOP-92 NSCLC, in the assay with BT-549 breast, in the assay on MCF7 breast and in the assay with OVCAR-4 ovarian was > 100 µM throughout. For the same molecule, the TGI in the assay on SNB-19 CNS is > 100 µM.
Take `Cc1ccc(CC(Cc2ccccc2C)C(=O)O)c(C(=O)O)c1` (stereo not given): the TGI in the assay with SF-539 CNS, in the assay with CCRF-CEM leukemia, in the assay with SK-MEL-2 melanoma, in the assay on OVCAR-8 ovarian, with TK-10 renal and with SK-MEL-5 melanoma was > 100 µM throughout. Further, the TGI in the assay on HCC-2998 colon, in the assay with 786-0 renal, with HOP-62 NSCLC, with HOP-92 NSCLC, in the assay on BT-549 breast and with MCF7 breast was > 100 µM in each case. Besides, the TGI with SF-268 CNS, in the assay on OVCAR-4 ovarian and in the assay with SNB-19 CNS was > 100 µM throughout.
As for `C=C(Cl)C(Cl)(CBr)CCC(Br)C(C)(C)Br` (stereo not given), the TGI in the assay with SF-539 CNS amounted to 4.01 µM; in the assay on CCRF-CEM leukemia, 23.5 µM; with OVCAR-8 ovarian, 13.9 µM; with TK-10 renal it was 3.12 µM; in the assay on SK-MEL-5 melanoma, 30.2 µM; in the assay on HCC-2998 colon, 19.9 µM. In addition, the TGI with SK-OV-3 ovarian is 26.5 µM; in the assay on 786-0 renal, 2.59 µM; in the assay on HOP-62 NSCLC it was 1.83 µM; in the assay with HOP-92 NSCLC, 4.38 µM; in the assay on BT-549 breast, 20.8 µM; in the assay with MCF7 breast, 3.34 µM. The TGI is 10.7 µM in the assay on SF-268 CNS, 36 µM with OVCAR-4 ovarian and 23.1 µM in the assay on SNB-19 CNS.
Consider `CCOC1OC(COC(=O)C(C)(C)C)C(O)CC1n1cc(C)c(=O)[nH]c1=O` (stereo not given), for which the TGI in the assay on SF-539 CNS, in the assay with CCRF-CEM leukemia, in the assay with SK-MEL-2 melanoma, in the assay with OVCAR-8 ovarian, in the assay with TK-10 renal and with SK-MEL-5 melanoma was > 100 µM each time. In addition, the TGI in the assay with HCC-2998 colon, with 786-0 renal, in the assay on HOP-92 NSCLC, in the assay on BT-549 breast, in the assay with MCF7 breast and with SF-268 CNS was > 100 µM each time. Moreover, the TGI in the assay with OVCAR-4 ovarian and in the assay with SNB-19 CNS was > 100 µM throughout.
Consider `CCOC(=O)C(C(=O)OCC)=C1SC(=Nc2ccccc2)C(=Nc2ccccc2)N1c1ccccc1`, for which the TGI in the assay with SF-539 CNS, in the assay on CCRF-CEM leukemia, with SK-MEL-2 melanoma, in the assay on OVCAR-8 ovarian, in the assay on SK-MEL-5 melanoma and in the assay with HCC-2998 colon was > 100 µM throughout. Further, the TGI with SK-OV-3 ovarian, with 786-0 renal, with HOP-62 NSCLC, with HOP-92 NSCLC, in the assay on BT-549 breast and in the assay with MCF7 breast was > 100 µM each time. Further, the TGI in the assay with SF-268 CNS and with SNB-19 CNS was > 100 µM each time.
Regarding `COc1ccc(C(CC2(c3ccc(OC)cc3)SCCCS2)NC(C)=O)cc1` (stereo not given), the TGI in the assay on SF-539 CNS was > 100 µM; in the assay on CCRF-CEM leukemia it was > 100 µM; in the assay on SK-MEL-2 melanoma, > 100 µM; in the assay with OVCAR-8 ovarian it was > 100 µM; with TK-10 renal, > 100 µM; in the assay with SK-MEL-5 melanoma, 37.7 µM. The TGI in the assay with HCC-2998 colon, in the assay on SK-OV-3 ovarian, in the assay with 786-0 renal, in the assay with HOP-62 NSCLC, in the assay on HOP-92 NSCLC and in the assay with BT-549 breast was > 100 µM in each case. Moreover, the TGI with MCF7 breast, in the assay with SF-268 CNS and in the assay on SNB-19 CNS was > 100 µM in each case.
As for `CC(C)C(NC(=O)OCC1c2ccccc2-c2ccccc21)C(=O)NC(CCC(=O)OC(C)(C)C)C(=O)OC(C)(C)C` (stereo not given) (Fmoc-Val-Glu(OtBu)-OtBu; configuration not given here), the TGI in the assay with SF-539 CNS is > 92 µM; in the assay with CCRF-CEM leukemia, > 100 µM; in the assay with OVCAR-8 ovarian, > 100 µM; in the assay with TK-10 renal, > 100 µM; with SK-MEL-5 melanoma, > 100 µM; in the assay with HCC-2998 colon it was > 100 µM. The TGI in the assay on SK-OV-3 ovarian, in the assay with 786-0 renal, in the assay with HOP-62 NSCLC, in the assay on HOP-92 NSCLC, in the assay with BT-549 breast and with MCF7 breast was > 100 µM throughout. For the same molecule, the TGI with SF-268 CNS, in the assay on OVCAR-4 ovarian and with SNB-19 CNS was > 100 µM throughout.
